Here are results for seven compounds from patent US20250034200A1, “Prodrugs of Neurosteroid Analogs and Uses Thereof” (priority 2021, published 2025).

In brackets after ≈: the same amount, converted by molar mass. Some results are limits rather than exact numbers.

Data set [1] in a line: Aqueous stability assay (HPLC, pseudo first-order half-life). Conditions: DPBS pH 7.0-7.3, 1 mg/mL, room temperature; for half-life: buffer, read-out: PBS t1/2 (converted). It counts as physicochemical. The protocol: Aqueous stability experiments were performed on an Agilent 1100 HPLC equipped with an Agilent 1200 autosampler. HPLC grade solvents were exclusively used during analysis, with acetonitrile being purchased from Sigma Aldrich, and water and formic acid provided by Fisher Scientific. […]
[…] All mixtures were then sonicated for 5 min or stirred until complete dissolution was achieved. Any precipitate observed in sample solutions was filtered with a PTFE syringe filter prior to analysis. Immediately after sample preparation, injection by the HPLC autosampler was performed, which was recorded as the initial time point (t=0 min). Samples were then kept in the autosampler at room temperature and injected at designated intervals without additional filtration or sample modification. Next, the area of the parent peak in each chromatogram was determined by automated integration in the Agilent ChemStation software. Pseudo first-order half-lives were then ascertained by calculating the percent of the parent compound remaining after each time point. Plots of time (x-axis) vs. the natural logarithm of percent parent remaining (y-axis) were subsequently constructed to determine the slope. Finally, the aqueous stability was evaluated using the following equation:
The HPLC conditions were as follows: injection volume, 1 μL; column temperature: 40° C.; detector: 254 nm; stationary phase: Zorbax Eclipse XDB-C18 (4.6×150 mm, 5 μm); flow rate: 1 mL/min; mobile phase: 80-95% acetonitrile in H2O (0.1% formic acid).

The nature of data set [2]: Nephelometry (aqueous solubility). It counts as physicochemical. Conditions: DPBS with 1% DMSO, aqueous buffer, kinetic from dmso stock, DPBS pH 7.0-7.3, 1% DMSO, 25° C. The source says: Well A1 of the plate contained 100% DMSO.
Data set [3] is described as follows: Plasma stability assay (LC-MS/MS). It counts as in vitro ADME. The conditions noted are these: human plasma, 37° C., 3 μM; for half-life: read-out: Plasma t1/2 (converted). As for the experimental part:
Procaine and procainamide were purchased from Sigma Aldrich. HPLC-grade acetonitrile, water, methanol, and formic acid were purchased from Fisher Scientific. Human plasma (Cat. No. […]2N) was obtained from BIOIVT, and PBS (1×Dulbecco's, pH 7.4) from Thermo Fisher Scientific.
Test compounds were dissolved in DMSO to make a stock solution of 10 mM and then diluted to 500 μM in buffer or 70% methanol. Human plasma was thawed at ambient temperature and aliquoted (994.0 μL) to a 1.5 mL Eppendorf tube in duplicates (vials A and B) for each compound. The plasma was incubated at 37° C. for 10 min in an incubator shaker at 150 RPM; the reaction was initiated by addition of the test compound (6.0 μL), followed by vortex mixing. The total reaction volume was 1000 μL, the final organic solvent concentrations were […] (when 70% methanol was used for dilution) and 0.03% DMSO, and the final concentration of the test compound was 3 μM. The spiked plasma samples were incubated at 37° C. for 4 h. The reactions were terminated at time point 0, 15, 30, 60, 120, 180, and 240 min by taking a 100 μL aliquot from the test incubation mixture and immediately quenching it by adding it into ice-cold acetonitrile or methanol (150 μL) containing 2 μM internal standard (ISTD), followed by vortex mixing. The ISTD was d5-7-ethoxy coumarin. The samples were then centrifuged at 15000 RPM for 25 min at 4° C., and the supernatant was transferred to an LC-MS vial for analysis by LC-MS/MS. Each time point was tested in duplicates followed by in-between blank washes to avoid carryover and to equilibrate the column.
Procaine (poor plasma stability) and procainamide (good plasma stability) were used as controls at the same concentration as that of the test compound. These controls were run in parallel to test the assay's competency. Matrix blank was prepared by adding acetonitrile or methanol containing ISTD to plasma samples without any of the test or control compounds. Also, an additional control sample was made to simply monitor compound degradation in PBS buffer.
Below is a summary of samples prepared for a given test compound in a typical plasma stability assay: • Test compound (TC): 994 μL human plasma+6.0 μL TC (Vial A) 994 μL human plasma+6.0 μL TC (Vial B) • Control: 596 μL human plasma+3.6 μL (procaine+procainamide) • Blank matrix: 500 μL PBS buffer+100 μL human plasma • Additional control: 142 μL PBS buffer+0.9 μL TC • Quenching mixture: 150 μL acetonitrile or methanol with ISTD (2 μM) • Final volume: 250 μL (100 μL from the incubation mixture+150 μL quenching mixture; final ISTD conc.: 1.2 μM)
LC-MS/MS analysis was performed using Agilent 1260 Infinity II HPLC, coupled with an Agilent G6460 triple quadrupole mass spectrometer (Agilent Technologies, USA). The data were acquired and processed using the Agilent 6460 Quantitative Analysis data processing software.
Reverse-phase HPLC separation for each compound was achieved on an Agilent InfinityLab Poroshell 120 C18 column (2.1×50 mm, 2.7 μm) with a mobile phase composed of methanol/water with 0.1% formic acid or acetonitrile/water with 0.1% formic acid at a flow rate of 0.5 mL/min. Each method was developed in the presence of the ISTD. The column temperature was maintained at 40° C. The detection was operated using the Agilent Jet-Stream electrospray positive ionization under the multiple reaction monitoring mode. The mass spec conditions were as follows: dwell time 100 ms; gas flow 10 L/min; nebulizer pressure 45 psi; delta EMV 200 V.
Plots of time (x-axis) vs. the natural logarithm of percent parent remaining (y-axis) were subsequently constructed to determine the slope. Finally, the plasma stability was evaluated using the following equation: […]

As usually defined, the solubility is how much of the substance goes into solution per volume. Higher therefore signals much dissolved substance. Regarding `C/C(=N\OC(=O)N(CCN)CCN)[C@H]1CC[C@H]2[C@@H]3CCC4=CC(=O)CC[C@]4(C)[C@H]3CC[C@]12C.O=C(O)C(F)(F)F.O=C(O)C(F)(F)F` [53j, (8S,9S,10R,13S,14S,17S)-17-((E)-1-(((bis(2-aminoethyl)carbamoyl)oxy)imino)ethyl)-10,13-dimethyl-1,2,6,7,8,9,10,11,12,13,14,15,16,17-tetradecahydro-3H-cyclopenta[a]phenanthren-3-one bis(2,2,2-trifluoroacetate)], the “PBS t1/2” value in data set [1] is 10.13 ± 0.41 h. Moreover, in data set [2], the solubility at 90 min is more than 750 µM.
As to `C/C(=N\OC(=O)N(C)CCO)[C@H]1CC[C@H]2[C@@H]3CCC4=CC(=O)CC[C@]4(C)[C@H]3CC[C@]12C` [compound 33, (8S,9S,10R,13S,14S,17S)-17-((E)-1-((((2-hydroxyethyl)(methyl)carbamoyl)oxy)imino)ethyl)-10,13-dimethyl-1,2,6,7,8,9,10,11,12,13,14,15,16,17-tetradecahydro-3H-cyclopenta[a]phenanthren-3-one], the half-life in data set [1] is 38.5 h. In data set [2], this compound returned a solubility at 90 min of 124 ± 3.28 µM (≈ 53.3 µg/mL).
`CNCCN(C(=O)O/N=C(\C)[C@H]1CC[C@H]2[C@@H]3CCC4=CC(=O)CC[C@]4(C)[C@H]3CC[C@]12C)C1CCC1.O=C(O)C(F)(F)F` [53c, (E)-5-cyclobutyl-9-((8S,9S,10R,13S,14S,17S)-10,13-dimethyl-3-oxo-2,3,6,7,8,9,10,11,12,13,14,15,16,17-tetradecahydro-1H-cyclopenta[a]phenanthren-17-yl)-7-oxa-2,5,8-triazadec-8-en-6-one 2,2,2-trifluoroacetate]: in data set [1], the “PBS t1/2” value came to 11.79 ± 0.51 h. In addition, the solubility at 90 min in data set [2] is more than 750 µM.
The corresponding values for `CNCCN(CCN(C)C)C(=O)O/N=C(\C)[C@H]1CC[C@H]2[C@@H]3CCC4=CC(=O)CC[C@]4(C)[C@H]3CC[C@]12C.O=C(O)C(F)(F)F` [53f, (E)-9-((8S,9S,10R,13S,14S,17S)-10,13-dimethyl-3-oxo-2,3,6,7,8,9,10,11,12,13,14,15,16,17-tetradecahydro-1H-cyclopenta[a]phenanthren-17-yl)-2-methyl-5-(2-(methylamino)ethyl)-7-oxa-2,5,8-triazadec-8-en-6-one 2,2,2-trifluoroacetate] are 2.17 ± 0.02 h and more than 500 µM.
Consider `CNC[C@@H]1CCCN1C(=O)O/N=C(\C)[C@H]1CCC2[C@@H]3CCC4=CC(=O)CC[C@]4(C)[C@H]3CC[C@@]21C.Cl` (stereo partly drawn) [32k, 1-((2S)-1-(((((E)-1-((8S,9S,10R,13S,17S)-10,13-dimethyl-3-oxo-2,3,6,7,8,9,10,11,12,13,14,15,16,17-tetradecahydro-1H-cyclopenta[a]phenanthren-17-yl)ethylidene)amino)oxy)carbonyl)pyrrolidin-2-yl)-N-methylmethanaminium chloride], for which the values for the half-life in data set [3] and in data set [1] (d (days)) were more than 4 h and more than 720 h, respectively.
For `CNCC(C)(C)CN(C)C(=O)O/N=C(\C)[C@H]1CCC2[C@@H]3CCC4=CC(=O)CC[C@]4(C)[C@H]3CC[C@@]21C.Cl` (stereo partly drawn) [compound 40, (E)-10-((8S,9S,10R,13S,17S)-10,13-dimethyl-3-oxo-2,3,6,7,8,9,10,11,12,13,14,15,16,17-tetradecahydro-1H-cyclopenta[a]phenanthren-17-yl)-4,4,6-trimethyl-8-oxa-2,6,9-triazaundec-9-en-7-one hydrochloride], the results for the half-life in data set [3] and in data set [1] (d (days)) were more than 4 h and 547 h, respectively.
`C/C(=N\OC(=O)OCCN(C)C)[C@H]1CC[C@H]2[C@@H]3CCC4=CC(=O)CC[C@]4(C)[C@H]3CC[C@]12C.Cl` [compound 35, (E)-9-((8S,9S,10R,13S,14S,17S)-10,13-dimethyl-3-oxo-2,3,6,7,8,9,10,11,12,13,14,15,16,17-tetradecahydro-1H-cyclopenta[a]phenanthren-17-yl)-2-methyl-5,7-dioxa-2,8-diazadec-8-en-6-one hydrochloride]: the “Plasma t1/2” value in data set [3] is 7.2 h. Moreover, the half-life in data set [1] was 3.5 ± 0.6 h.
